Experimental data published in patent publication US7964607B2, “Pyrazolo[3,4-d]pyrimidine compounds” (Pfizer Inc., priority 2007, dated 2011).
Read-outs that look alike come from different tables or passages of the source.

Molecular target: T1, human recombinant PDE9 enzyme (Homo sapiens, UniProt O76083)
T1 construct: made in house; host or cells: SF-9 insect cells
Assay: Phosphodiesterase 9 (PDE9) inhibitory activity, Scintillation Proximity (SPA) assay
Format: biochemical
Conditions: human recombinant PDE9 from SF-9 cells, 50 nM [3H]cGMP, room temperature, 30 min
Summary of the method: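 Scintillation proximity read-out of [3H]cGMP hydrolysis after 30 min at room temperature, with enzyme addition starting the reaction. The enzyme was human recombinant PDE9 expressed in SF-9 cells, titrated to keep substrate turnover at 20% or less. Compound wells held 2% DMSO final, and background was defined with excess PDE inhibitor.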

[1] = Examples 3-114, read-out: G5678A (U): IC50

T1 sequence (O76083 whole entry): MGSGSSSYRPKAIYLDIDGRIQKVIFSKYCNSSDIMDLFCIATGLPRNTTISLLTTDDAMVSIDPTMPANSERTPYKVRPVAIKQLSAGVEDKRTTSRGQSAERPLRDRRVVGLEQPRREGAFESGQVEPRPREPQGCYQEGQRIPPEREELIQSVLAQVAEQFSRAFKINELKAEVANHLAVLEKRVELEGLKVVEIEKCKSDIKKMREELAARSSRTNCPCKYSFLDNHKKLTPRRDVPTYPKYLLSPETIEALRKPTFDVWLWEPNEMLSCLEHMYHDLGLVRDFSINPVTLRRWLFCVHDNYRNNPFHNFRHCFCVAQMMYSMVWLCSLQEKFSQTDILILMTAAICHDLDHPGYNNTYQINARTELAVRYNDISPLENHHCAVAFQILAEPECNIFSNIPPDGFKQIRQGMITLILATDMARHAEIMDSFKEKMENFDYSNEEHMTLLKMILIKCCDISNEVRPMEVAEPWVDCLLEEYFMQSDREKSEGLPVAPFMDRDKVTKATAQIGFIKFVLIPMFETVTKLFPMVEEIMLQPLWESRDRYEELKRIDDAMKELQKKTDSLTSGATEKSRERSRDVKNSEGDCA

Row | IC50 [1] [nM] | IC50 (additional compounds Ex. 115-228, read-out: G5678A (U):IC50) [nM] | Compound
1 | 7.23 | – | C[C@@H]1CN(Cc2cnc3ccccc3n2)C[C@H]1c1nc2c(cnn2C2CCCC2)c(=O)[nH]1 (racemic) [Example 12, 1-cyclopentyl-6-[(3,4-trans)-4-methyl-1-(quinoxalin-2-ylmethyl)pyrrolidin-3-yl]-1,5-dihydro-4H-pyrazolo[3,4-d]pyrimidin-4-one]
2 | 30.7 | – | COc1ccc2nccc(CN3C[C@@H](C)[C@H](c4nc5c(cnn5C(C)C)c(=O)[nH]4)C3)c2n1 (racemic) [Example 69, 1-isopropyl-6-{(3,4-trans)-1-[(6-methoxy-1,5-naphthyridin-4-yl)methyl]-4-methylpyrrolidin-3-yl}-1,5-dihydro-4H-pyrazolo[3,4-d]pyrimidin-4-one]
3 | – | 99.6 | COc1ccc(OC)c(CN2C[C@@H](C)[C@H](c3nc4c(cnn4C4CCCC4)c(=O)[nH]3)C2)c1 (racemic) [Example 144, 1-cyclopentyl-6-[(3,4-trans)-1-(2,5-dimethoxybenzyl)-4-methylpyrrolidin-3-yl]-1,5-dihydro-4H-pyrazolo[3,4-d]pyrimidin-4-one]
